Columns and labels:
MEF cells [1] = assay: Screening compounds in the iPS process in iPS-SF1 medium (relative GFP efficiency by FACS); format: cell-based, mouse; details: iPS-SF1, four factors, day 7; for effect on the efficiency of iPS reprogramming (relative GFP efficiency): PD0325901 1 μM, CHIR99021 3 μM, SU5402 2 μM; for enhancement of the efficiency of iPS reprogramming (relative GFP efficiency): TSA 20 nM, VPA 1 mM
Procedure: The main method for quantifying reprogramming efficiency is FACS analysis for Oct4-GFP positive cells. Based on the results of the timing process, the infected MEF cells were digested with trypsin at days 7 and 9 after infection and then analyzed through FACSCalibur. GFP positive cells received the gates of control signals from PE pathway, and 15,000 events were recorded as a minimum. Cells infected with pMXs-FLAG were used as negative control. In order to verify the efficiency as analyzed by FACS, GFP positive colonies were counted directly under a fluorescence microscope at day 14 after infection.
20,000 MEF cells were plated in each well of a twelve-well plate. The medium was iPS-SF1. Then, the cells were infected with viruses as described above in order to be transfected with the four factors. The compounds as shown in FIG. 6 were added into the medium at the following concentrations respectively: PD0325901 (1 μM), CHIR99021 (3 μM), SU5402 (2 μM, EMDbiosciences), Y-27632 (10 μM), vitamin E (25 μM, Sigma), vitamin A (1 μM, Sigma), A83-01 (0.5 μM, EMD), SB203580 (2 μM), Dorspmorphin (3 μM, Sigma), PFF-α (10 μM), TSA (20 nM, Sigma), VPA (1 mM, EMD), JAK inhibitor (0.3 μM, EMD), 5aza-DC (1 μM, Sigma), BIX01294 (1 μM), Bayk8644 (2 μM, EMD).
At day 7 after infection, cells were collected for FACS analysis as described above, and the relative GFP efficiency was measured. […] However, under conditions using the medium of the present invention, the compounds that had been previously reported as favorable to self-renewal of mouse embryonic stem cells, such as PD0325901, CHIR99021, and SU5402 reduced the efficiency of iPS reprogramming.

MEF cells [2] = assay: Effects of medium components, growth factors and serum on iPS reprogramming efficiency (Oct4-GFP FACS); format: cell-based, mouse; details: for effect on the induction of the iPS reprogramming process: added to iPS-SF1 without bFGF, four factors, Oct4-GFP at day 7
Procedure: The main method for quantifying reprogramming efficiency is FACS analysis for Oct4-GFP positive cells. Based on the results of the timing process, the infected MEF cells were digested with trypsin at days 7 and 9 after infection and then analyzed through FACSCalibur. GFP positive cells received the gates of control signals from PE pathway, and 15,000 events were recorded as a minimum. Cells infected with pMXs-FLAG were used as negative control. In order to verify the efficiency as analyzed by FACS, GFP positive colonies were counted directly under a fluorescence microscope at day 14 after infection. LIF, N2, and bFGF in iPS-SF1 medium as listed in Table 1 were deleted respectively, or N2 and bFGF were added into DMEM+10% KOSR (i.e., containing no growth factor but containing NEAA, L-Glutamine or other ingredients at the same time, called as bKSR hereinafter) medium at concentrations equivalent to that of iPS-SF1 respectively, in order to detect the effects of LIF, N2, bFGF on the iPS reprogramming efficiency of MEF cells transfected with the four factors. […] In order to verify whether other tyrosine kinases and estrogens can play a role in inducing reprogramming of iPS cells in the medium of the present invention, after MEF cells were infected with the four-factor viruses, the following media were used instead, wherein the blank control was iPS-SF1 without bFGF, the experimental group was the blank medium (i.e., iPS-SF1 without bFGF) supplemented with various receptor tyrosine kinases (including basic fibroblast growth factor bFGF, epidermal growth factor EGF, vascular endothelial growth factor VEGF, insulin-like growth factor 2 IGF2, and estradiol), and a serum medium (FBS) was used as the negative control of this experiment.

Row | Compound | effect on the efficiency of iPS reprogramming (relative GFP efficiency) (MEF cells [1]) | effect on the induction of the iPS reprogramming process (MEF cells [2]) | other results
1 | O=C(NOC[C@H](O)CO)c1ccc(F)c(F)c1Nc1ccc(I)cc1F [PD0325901] | reduced |  | 
2 | CC(/C=C/C(=O)NO)=C\[C@@H](C)C(=O)c1ccc(N(C)C)cc1 [TSA] |  |  | enhancement of the efficiency of iPS reprogramming (relative GFP efficiency) (MEF cells [1]): 100%
3 | C[C@]12CC[C@@H]3c4ccc(O)cc4CC[C@H]3[C@@H]1CC[C@@H]2O [estrogen, estradiol] |  | comparable effects | 
4 | Cc1c[nH]c(/C=C2\C(=O)Nc3ccccc32)c1CCC(=O)O [SU5402] | reduced |  | 
5 | vascular endothelial growth factor [VEGF] |  | comparable effects | 
6 | CCCC(CCC)C(=O)O [VPA] |  |  | enhancement of the efficiency of iPS reprogramming (relative GFP efficiency) (MEF cells [1]): 100%
7 | basic fibroblast growth factor [bFGF] |  |  | effects on iPS reprogramming efficiency (MEF cells [2]; component added to bKSR or deleted from iPS-SF1, four factors, day 7): even higher than those of LIF
8 | insulin-like growth factor 2 [IGF2] |  | comparable effects | 
9 | epidermal growth factor (NSDSECPLSHDGYCLHDGVCMYIEALDKYACNCVVGYIGERCQYRDLKWWELR; Epidermal growth factor; UniProt P01133 971-1023, looked up) [EGF] |  | comparable effects | 
10 | Cc1c[nH]c(-c2cnc(NCCNc3ccc(C#N)cn3)nc2-c2ccc(Cl)cc2Cl)n1 [CHIR99021] | reduced |  | 
